The values that follow come from the SangsterLogP compilation.

The structures appear in SMILES notation.

A short description of this data set: method code SF-HPLC, from DOI: 10.1016/j.ejmech.2006.12.027, PMID: 17306423.
`COc1ccc(C2=[N+]([O-])C(C)(C)C(C)(C)N2O)cc1OC` came in with a logP of 1.15.

Compound `CC1(C)N(O)C(c2ccc([N+](=O)[O-])cc2)=[N+]([O-])C1(C)C` returned a logP of 1.68.

As for `CC1(C)N(O)C(c2ccccc2[N+](=O)[O-])=[N+]([O-])C1(C)C`, the logP came to 0.91.

On to `COc1ccc(C2=[N+]([O-])C(C)(C)C(C)(C)N2O)cc1`, for which the log partition coefficient (logP) came to 1.62.

In turn, `CC1(C)N(O)C(c2cccnc2)=[N+]([O-])C1(C)C` had a logP of 0.51.

`CC1(C)N(O)C(c2ccc(Cl)cc2)=[N+]([O-])C1(C)C` registered a logP of 2.33.

Consider `CC1(C)N(O)C(c2ccccc2O)=[N+]([O-])C1(C)C`, for which the logP was found to be 1.17.

`COc1cc(C2=[N+]([O-])C(C)(C)C(C)(C)N2O)ccc1O` returned a logP of 1.14.

`CC1(C)N(O)C(c2ccc(O)cc2)=[N+]([O-])C1(C)C` yielded a logP of 0.62.

`COc1ccc(C2=[N+]([O-])C(C)(C)C(C)(C)N2O)cc1O`: the logP was determined as 0.92.

As to `CC1(C)N(O)C(c2ccc(Br)cc2)=[N+]([O-])C1(C)C`, the logP stood at 2.46.

For the compound `CC1(C)N(O)C(c2ccc3c(c2)OCO3)=[N+]([O-])C1(C)C`, the logP was found to be 1.51.

`Cc1ccc(C2=[N+]([O-])C(C)(C)C(C)(C)N2O)cc1` gave a logP of 1.9.

In the case of `CC1(C)N(O)C(c2cccc([N+](=O)[O-])c2)=[N+]([O-])C1(C)C`, the logP was 1.64.

As to `CC1(C)N(O)C(c2ccc(Cl)cc2Cl)=[N+]([O-])C1(C)C`, the logP is 1.93.

As to `COc1ccc(C2=[N+]([O-])C(C)(C)C(C)(C)N2O)c(OC)c1`, the logP worked out at 0.77.

In turn, `CC1(C)N(O)C(c2ccco2)=[N+]([O-])C1(C)C` returned a logP of 0.62.

`CN(C)c1ccc(C2=[N+]([O-])C(C)(C)C(C)(C)N2O)cc1` registered a logP of 2.02.

Take `CC1(C)N(O)C(c2ccccc2F)=[N+]([O-])C1(C)C`: the logP is 0.82.

As for `CC1(C)N(O)C(c2ccc(OCC(=O)O)cc2)=[N+]([O-])C1(C)C`, the logP was -0.52.

On to `CC1(C)N(O)C(c2cccc(O)c2)=[N+]([O-])C1(C)C`, for which the logP amounted to 1.14.

With `CC1(C)N(O)C(c2ccccc2)=[N+]([O-])C1(C)C`, the logP came out at 1.37.
